In patent publication EP0285287A2, “3-Benzazepine compounds for use in treating gastrointestinal motility disorders” (SMITHKLINE BECKMAN CORPORATION, priority 1987, dated 1988):
Like-named read-outs stand apart in the source and are kept apart here.

System: lower esophageal sphincter (LES)
Experiment: Determination of LES pressure in the anesthetized dog
Type: in vivo, dogs
Details: Canis lupus familiaris, mean ED20 = dose which increases LES pressure 20 mm Hg (N>=3)
Description: Methods for Determination of LES Pressure in the Anesthetized Dog
Mongrel or beagle dogs, male and female, are anesthetized using sodium pentobarbital (35.0 mg/kg., i.v.). Sodium pentobarbital is then continuously infused (approximately 6.0 mg/kg/hr) to maintain deep anesthesia. Blood pressure is monitored via a catheter surgically implanted into the femoral artery and attached to a Gould-Statham P23ID transducer. A catheter is also implanted into the femoral vein to administer test drugs. Respiration is maintained by an endotracheal tube attached to a respirator. A continuously perfused manometric catheter system including a Dent sleeve to measure sphincter pressure (Dent, Gastroenterology 71:263-267, 1976) is inserted into the esophagus and positioned so that intraluminal pressure is recorded from the body of the esophagus, the lower esophageal sphincter (LES) and the fundus of the stomach. The Dent sleeve catheter is perfused at a rate of 0.5 ml of water per minute for each lumen of the catheter by using an Arndorfer Hydraulic Capillary Infusion System. A cannula is implanted into the gastric antrum to allow drainage of the perfusate solution and prevent intestinal distension. Continuous tracings of esophageal, LES and fundus pressure are monitored on a Grass Polygraph (Model 7D). Correct positioning of the Dent sleeve is verified by noting a high pressure zone at the LES and by administration of an intravenous dose of 5-HT (usually 10-15 mcg/kg) which contracts the LES while having little or no recordable effect on either the body of the esophagus or the fundus. After verification of placement of the sleeve, the animal is allowed to stabilize for approximately 30 minutes.
Compounds are administered intravenously or intraduodenally. In most cases, succeeding doses of the same or different compounds are given only after the LES pressure has returned to approximate pre-dosing baseline values. In all cases, the magnitude of change in LES pressure is determined from the baseline pressure immediately prior to each treatment to the maximum pressure during treatment. Since the compounds used usually produce an immediate effect on LES pressure, no pretreatment time prior to measurement is necessary during this testing.
Direct assay techniques are used to estimate an Effective Dose 20 (ED₂₀) for the test compound in individual animals. The mean ED₂₀ and 95% confidence limits are determined using the individual ED₂₀ values from a group of animals (N= ≧3) that received the same treatment. The ED₂₀ is the dose which increases LES pressure 20 mm Hg.

[1] = intravenous, read-out: ED20 in mcg/kg i.v.
[2] = intraduodenal, read-out: ED20 in mcg/kg i.d.

Structure (SMILES)	ED (20 mm Hg) [1]	ED (20 mm Hg) [2]
CN1CCc2cc(Sc3ccccc3)c([N+](=O)[O-])cc2CC1 [Compound 5, 3-methyl-7-nitro-8-phenylthio-2,3,4,5-tetrahydro-1H-3-benzazepine]	1200 µg/kg	
Oc1ccc2c(c1)CCNCC2 [Compound 4, 7-hydroxy-2,3,4,5-tetrahydro-1H-3-benzazepine]	348 µg/kg	
CSc1ccc2c(c1)CCN(C)CC2 [Compound 3, 3-methyl-7-methylthio-2,3,4,5-tetra-hydro-1H-3-benzazepine]	273 µg/kg	236 µg/kg
CN1CCc2ccc(O)c(Sc3ccccc3)c2CC1 [Compound 1, 7-hydroxy-3-methyl-6-phenylthio-2,3 4,5-tetrahydro-1H-3-benzazepine]	63 µg/kg	263 µg/kg
CN1CCc2cc(O)c(Sc3ccccc3)cc2CC1 [Compound 2, 8-hydroxy-3-methyl-7-phenylthio-2,3 4,5-tetrahydro-1H-3-benzazepine]	14 µg/kg	~1000 µg/kg
